# Literature values as cited in patent publication US20100022769A1, “NOVEL POLYNITROGENATED SYSTEMS AS ANTI-HIV AGENTS” (priority 2006, published 2010).
# Assays:
# CXCR4 = CXCR4 (Homo sapiens, UniProt P61073); conditions: times more active than AMD3100
# [1] = development abandoned in 2001
# [2] = tested on: CCR5-dependent replication of HIV; conditions: virus recovered from patients who received AMD3100
# X4 strain of HIV = conditions: subject infected with a X4 strain of HIV
# [3] = related to its high positive charge in physiological medium
# Sequence of CXCR4 (P61073 whole entry): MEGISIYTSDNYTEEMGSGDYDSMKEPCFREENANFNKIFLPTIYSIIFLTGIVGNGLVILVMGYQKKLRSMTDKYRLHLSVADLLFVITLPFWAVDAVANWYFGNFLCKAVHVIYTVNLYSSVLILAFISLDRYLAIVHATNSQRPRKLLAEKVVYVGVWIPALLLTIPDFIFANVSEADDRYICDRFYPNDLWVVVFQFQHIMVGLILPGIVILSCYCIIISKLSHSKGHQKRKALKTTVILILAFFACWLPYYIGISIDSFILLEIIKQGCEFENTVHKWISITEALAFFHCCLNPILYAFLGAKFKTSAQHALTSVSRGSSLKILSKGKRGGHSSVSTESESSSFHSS
Compound,activity relative to AMD3100 (CXCR4),cardiac toxicity [1],inhibiting the in vivo CCR5-dependent replication of HIV [2],reduction of the viral load (X4 strain of HIV),oral bioavailability [3]
c1ccc(CNCc2ccc(CN3CCCNCCNCCCNCC3)cc2)nc1 [AMD3465],up to 10 times,–,–,–,–
c1cc(CN2CCCNCCNCCCNCC2)ccc1CN1CCCNCCNCCCNCC1 [AMD3100],–,possible cardiac toxicity,not effective,0.8-0.9 log 10,lack of oral bioavailability
